Laboratory results published in patent US6242445A, “Benzimidazole derivative” (Kureha Chemical Industry Co., Ltd., priority 1998, dated 2001).

What was measured:
[1] = biological target: T1, angiotensin II receptor subtype 1 (AT1) (Oryctolagus cuniculus, UniProt P34976); experiment: Binding assay, angiotensin II receptor subtype 1 (AT1); design: species or system rabbits
T1 construct: from adrenal glands in rabbits; from tissue; host or cells: adrenal glands of rabbits
T1 sequence (P34976 1-359): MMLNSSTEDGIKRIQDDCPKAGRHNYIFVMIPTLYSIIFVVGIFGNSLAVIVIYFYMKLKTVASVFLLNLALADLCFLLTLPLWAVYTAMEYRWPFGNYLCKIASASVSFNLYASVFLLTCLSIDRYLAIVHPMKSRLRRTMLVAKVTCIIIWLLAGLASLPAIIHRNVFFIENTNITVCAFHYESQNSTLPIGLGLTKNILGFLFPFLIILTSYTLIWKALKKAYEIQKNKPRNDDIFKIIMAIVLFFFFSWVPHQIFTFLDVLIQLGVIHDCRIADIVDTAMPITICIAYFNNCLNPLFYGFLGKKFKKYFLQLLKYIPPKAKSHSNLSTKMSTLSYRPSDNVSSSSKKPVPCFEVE
Procedure: In this Example, a binding assay was carried out. That is, the affinity to the angiotensin II receptor subtype 1 orsubtype 2 was evaluated in accordance with the method described in Biochem. Pharmacol., 33, 4057-4062 (1984).
Specifically, the measurement of the total binding in the presence of each drug was performed as follows:
A mixture (final volume=0.25 ml) of a drug in a given concentration (the drug was dissolved in DMSO, and diluted to a double volume with a buffer attached to a drug discovery system to prepare a sample for the assay; 0.025 ml), a tracer (0.025 ml), and receptors (0.2 ml) was incubated [in the case of the angiotensin II receptor subtype 1 (AT1), at room temperature for 3 hours, and in the case of the subtype 2 (AT2), at 37° C. for 1 hour]. Then, the reaction mixture was filtered with suction (a GF/C filter was used in AT1, and a GF/B filter was used in AT2). The filter papers after filtration with suction (the tracer bound to the receptors) were counted by a γ-well counter (ARC-500, Aloka). The non-specific bindings were measured by repeating the above method, except that a large excess amount of a displacer was added. The specific binding of the drug in the given concentration was calculated by subtracting the non-specific binding from the total binding, respectively.
tracer: ^3 H-angiotensin II

[2] = system: SHR rats; experiment: Action on weight of heart in SHR rats; format: in vivo; details: 20 weeks; for Relative weight ratio / Heart weight / Blood pressure / Body weight: 20 mg/kg oral in drinking solution, average±standard deviation; for Relative weight ratio: control 0.338 ± 0.012; for Heart weight: control 1.430 ± 0.082; for Blood pressure: control 224 ± 49; for Body weight: control 423 ± 17; for heart weight based on hypercardia / lowering of blood pressure / myocardiopathy: 20 mg/kg
Procedure: In this Example, an action on a weight of a heart was evaluated. More particularly, 21-week-old SHR rats were divided into a control group (8 rats) and a test group (7 rats). The rats in the test group were allowed to freely drink a solution prepared by dissolving 2-ethoxy-1-[[4'-(2"-N,N-dimethylamino-ethoxycarbonyl)phenyl]methyl]-1H-benzimidazole-6-carboxylic acid morpholide (Compound No. 13) prepared in Example 6 or 2-ethoxy-1-[[4'-(2'-morpholinoethoxycarbonyl)-phenyl]methyl]-1H-benzimidazole-6-carboxylic acid piperidinamide (Compound No. 57) prepared in Example 28 for 20 weeks (20 mg/kg). After the oral administration was finished, the heart was taken, and the weight of the heart was measured.

**Q.** How did the “inhibitory effect / binding activity / antagonism at angiotensin II receptor” value [1] turn out when CCOc1nc2ccc(C(=O)N3CCOCC3)cc2n1Cc1ccc(C(=O)OCCN(C)C)cc1 [Compound No. 13, 2-ethoxy-1-[[4'-(2"-N,N-dimethylaminoethoxycarbonyl)phenyl]methyl]-1H-benzimidazole-6-carboxylic acid morpholide] was run?
**A.** The value was “do not substantially exhibit a conventional angiotensin II receptor antagonism”.

**Q.** And the Relative weight ratio [2]?
**A.** The Relative weight ratio was 0.328 ± 0.007%.

**Q.** And the Heart weight [2]?
**A.** Its Heart weight is 1.392 ± 0.034 g.

**Q.** What about the Blood pressure [2] of the same compound?
**A.** Its Blood pressure is 232 ± 12 mmHg.

**Q.** What about the Body weight [2] of the same compound?
**A.** The Body weight was 424 g.

**Q.** What about the “heart weight based on hypercardia” value [2] of the same compound?
**A.** Its value is “significantly reduced”.

**Q.** What about the “lowering of blood pressure” value [2] of the same compound?
**A.** Its value is “without inducing a lowering of blood pressure”.

**Q.** And the “myocardiopathy” value [2]?
**A.** The value was “suppresses myocardiopathy”.

**Q.** With CCOc1nc2ccc(C(=O)N3CCCCC3)cc2n1Cc1ccc(C(=O)OCCN2CCOCC2)cc1 [Compound No. 57, 2-ethoxy-1-[[4'-(2"-morpholinoethoxycarbonyl)phenyl]methyl]-1H-benzimidazole-6-carboxylic acid piperidinamide] as the compound, how does the “inhibitory effect / binding activity / antagonism at angiotensin II receptor” value [1] read?
**A.** The value was “do not substantially exhibit a conventional angiotensin II receptor antagonism”.

**Q.** What about the Relative weight ratio [2] of the same compound?
**A.** The Relative weight ratio was 0.324 ± 0.012%.

**Q.** And the Heart weight [2]?
**A.** The Heart weight was 1.390 ± 0.077 g.

**Q.** And the Blood pressure [2]?
**A.** Its Blood pressure is 207 ± 14 mmHg.

**Q.** And the Body weight [2]?
**A.** Its Body weight is 429 g.

**Q.** What about the “heart weight based on hypercardia” value [2] of the same compound?
**A.** Its value is “significantly reduced”.

**Q.** And the “lowering of blood pressure” value [2]?
**A.** The value was “without inducing a lowering of blood pressure”.

**Q.** What about the “myocardiopathy” value [2] of the same compound?
**A.** The value was “suppresses myocardiopathy”.
